Assay results reported in patent publication US20240318225A1, “TECHNIQUES FOR ISOLATION OR ANALYSIS OF BACTERIAL PATHOGENS FROM PATIENT SAMPLES” (General Electric Company, priority 2021, published 2024).

Test system: E. coli clinical isolate
Test: microfluidic single cell antimicrobial susceptibility testing
Assay type: cell-based
Settings: 8 μg/ml ampicillin; during the duration of the experiment
Protocol: The microfluidic device for single cell antimicrobial susceptibility testing was fabricated by soft lithography. The microchannel master mold was fabricated by photolithography patterning and reactive-ion etching of a silicon wafer. Microchannel layers were then fabricated by PDMS molding on the master mold. PDMS pre-polymer and cross-linker were mixed at 10:1 ratio. The mixture was poured on the master mold and incubated for at least 3 hours at 65° C. The single cell antimicrobial susceptibility testing device was fabricated by bonding the PDMS layer with a glass slide. Inlet and outlet reservoirs were created by punching the PDMS layer with a biopsy puncher.
To perform the microfluidic single cell antimicrobial susceptibility testing experiment, ampicillin was added to the enriched samples with concentrations of 0 μg/mL, 2 μg/mL, 4 μg/mL, and 8 μg/mL. Each respective solution was loaded into a microfluidic device by capillary force. The devices were then mounted onto an epi-fluorescence microscope (Leica DMI 4000B, objective 20× or 40×) with a microscope heating stage. The presence of bacteria was examined, and the bacterial growth was monitored continuously.
The disclosed workflows may be used for antimicrobial susceptibility testing using a microfluidic device. […]

CC1(C)S[C@@H]2[C@H](NC(=O)[C@H](N)c3ccccc3)C(=O)N2[C@H]1C(=O)O [ampicillin]
effect on bacteria at higher concentration: some bacteria were lysed
